From US7981878B2, “Tumor treatment with gliotoxin derivatives” (priority 2005, dated 2011)

What was measured:
[1] = test system: Meljuso-Bcl-2 (+) (Bcl-2 over expressing melanoma cell line); assay: Cell count analysis Meljuso-Bcl-2 (+); type: cell-based, human
Procedure: FIG. 8 a-d: Effects of gliotoxin on cell counts of various human tumour cell lines in vitro. Cell counts of a) hepatocellular carcinoma cell lines HepG2, Huh7, SNU398, Hep3b, HeLa (cervix) and the cholangiocarcinoma cell line NEC as well as b) the pancreatic cancer cell line Panc-1 and the melanoma cell lines d) MelJuso, Meljuso-Bcl-2 (+) and 607B after 72 h treatment with 200 nM gliotoxin; c-d) Cell count dose range experiments with c) pancreatic carcinoma cell lines Panc-1 and MiaPaCa as well as melanoma cell lines MelJuso, 518A2 and 607B using 25, 50 100 and 200 nM gliotoxin for 24 h. All data are given relative to control ±standard deviation.
Tumour cells were seeded at a density of 10,000 cells/well in 24-well plates. 24 h after seeding, medium containing gliotoxin was added to yield desired concentrations of gliotoxin. At time points indicated, culture medium was removed by suction. Adherent cells were washed with DPBS (Cambrex, Verviers, Belgium) and incubated with trypsin (Gibco) at 37° C. Detached cells were transferred to test tubes containing Cellpack isotonic fluid (Sysmex Europe, Bornbarch, Germany) and counted with a Coulter Z1 electronic cell counter (Beckman Coulter, Bedford, UK).

Notch2 (N2^IC) = assay: Nuclear Notch2 activity in B-CLL cells by EMSA (band shift assay); type: cell-based, human; settings: B-CLL cells, 0.2 μM gliotoxin, 24 h
Procedure: FIG. 3: Gliotoxin is a potent Notch2 trans-activation inhibitor in B-CLL cells. (A) EMSA showing the inhibition of DNA-bound Notch2IC complexes in the presence of 0.2 μg Gliotoxin. B-CLL samples (n=10) were cultured in the presence of 1 ng/ml TPA with or without 0.2 μM Gliotoxin for 24 hours. Nuclear extracts were subjected to EMSA using a oligonucleotide probe spanning a well defined CBF1/NotchIC binding site derived from the CD23a promoter. (B). Corresponding FACS analysis (plus 10 additional B-CLL samples) showing the downregulation of the Notch2 target gene CD23 as well as the induction of apoptosis of Gliotoxin treated B-CLL samples. Columnes represent the percentage of CD19^+CD23^+ (grey bars) and apoptotic cells (black bars: including early apoptotic cells single positive for AnnexinV, and late apoptotic cells double positive for AnnexinV and probidium iodide), respectively.
As drug screening model, a cell culture system was established which conserves the phenotype of freshly isolated B-CLL cells (3×10^6 B-CLL cells/ml RPMI medium+10% FCS, supplemented with 1 ng/ml of TPA). Notch2 activity in the cell nucleus is determined by means of EMSA (electrophoretic mobility shift assay) experiments, and the cell viability (Probidium iodide/annexinV) and CD23 expression (Notch2 target gene) is determined by means of FACS (flow cytometry) analyses, respectively. […]

Notch2 = Notch2 activity band shift assay in 518A2; type: cell-based, human; settings: 518A2, 200 nM gliotoxin, maximum at 24 h
Procedure: FIG. 10 a-b: Effects of gliotoxin on Notch2 regulation and apoptosis. The melanoma cell line 518A2 (A) and the pancreatic cancer cell line Panc-1 (B) were treated with 200 nM gliotoxin or vehicle control for 24 h Notch2 activity was analysed by band shift assay. Apoptosis was measured as annexin V and 7-AAD double positivity by FACS. Data are given as percentage of apoptotic cells ±standard deviation.
500,000 cells were seeded on 12 cm^2 plates for 24 h and then treated with 200 nM gliotoxin. At the time points as indicated cells were harvested and immediately frozen at −80° C. The band shift assay was performed as described for B-CLL.

[2] = test system: cultures from animal cells; settings: cited from earlier work
[3] = test system: PBMCs from healthy donors; assay: Apoptosis of control PBMCs from healthy donors by FACS; type: cell-based, human; settings: 0.2 μM gliotoxin, 4 hours
Procedure: FIG. 4: Gliotoxin induces apoptosis in unstimulated as well as in TPA-stimulated B-CLL cells within 4 hours. Normal PBMCs (peripheral blood mononuclear cells) from healthy donors show a markedly lower Notch2 activity. Although gliotoxin inhibits Notch2 also in normal, TPA-stimulated cells, the gliotoxin-caused apoptosis rate is markedly lower in normal cells as compared to B-CLL cells. Non-stimulated and TPA stimulated PBMC's from healthy donors (HD) are less sensitive to 0.2 μM Gliotoxin despite a basal Notch2 activity. PBMC's and CLL cells were incubated with 0.2 μM Gliotoxin with or without TPA for 4 hours and the Notch2 activity as well as the percentage of apoptotic cells were determined by EMSA and FACS analysis, respectively.
After 4 hours of gliotoxin treatment, massive signs of the starting apoptosis (AnnexinV+) could already be recognized in B-CLL cells. This effect was increased by TPA (a phorbol ester which stimulates the activation of lymphocytes).

K562 (CML) = assay: Apoptosis FACS in leukaemia cell line K562; type: cell-based; settings: K562, 0.2 μM gliotoxin, 24 h
Procedure: FIG. 7: (A) The apoptotic activity of gliotoxin on further B-CLL patient samples (CLL4-CLL8) is illustrated. The (non-Notch2-associated) leukaemia cell lines (or the leukaemia cell lines not characterised by ligand-independent Notch2 fragments) Jurkat (T-ALL), SH1 (hairy cell carcinoma), RL-7 and K562 (CML) are resistant to a treatment with 0.2 μM (corresponding to 60 ng/ml) of gliotoxin. Cells were incubated for 24 h+/−gliotoxin, and the percentage of apoptotic cells (probidium-iodide+/annexinV+) was determined by means of FACS analysis. In none of the 4 non-Notch2-associated cell lines indicated, the application of 0.2 μM of gliotoxin led to a significant induction of apoptosis within 24 hours. The cytotoxic effect of Gliotoxin correlates with the Notch2 activity in leukemias. (B) Corresponding EMSA showing the activity of Notch2 in B-CLL cells and in leukemic cell lines (Jurkat, SH1, RL7, and K562).

CN1C(=O)[C@]23CC4=CC=C[C@H](O)[C@H]4N2C(=O)[C@@]1(CO)SS3 [gliotoxin, [3R-(3α,5aβ,6β,10aα)]-2,3,5a,6-tetrahydro-6-hydroxy-3-(hydroxymethyl)-2-methyl-10H-3,10a-epi-dithiopyrazino[1,2-a]indol-1,4-dion]
response ([1]; MelJuso +BCL2, 0.2 μM (60 ng/ml)): ~100%
cell count decrease ([1]; Meljuso-Bcl-2 (+), 200 nM gliotoxin, 72 h): 94%
transcriptional Notch2 activity (EMSA) (Notch2 (N2^IC)): dramatic loss
Notch-2 activity (band shift assay) (Notch2): time dependent down regulation
concentration at which the effect changes towards necrosis [2]: more than 10 μM
concentration for complete necrosis of the cell cultures [2]: ≥ 50 µM
apoptosis ([3]; TPA-stimulated PBMCs): 17%
apoptosis ([3]; non-stimulated PBMCs): 20%
induction of apoptosis (probidium-iodide+/annexinV+) (K562 (CML)): resistant
